Read-outs that look alike come from different tables or passages of the source. No end group written: not given here.
Legend:
[1] = test system: human red blood cells; assay: Cytotoxicity: hemolysis of human red blood cells; assay type: cell-based
Description: The cytotoxicity of the selected IAPS was performed using human red blood cells in strict accordance with relevant guidelines and regulations (Ethical committee – UnB # 1.939.989). Different concentrations of IAPs (128 µM–0.5 µM) were incubated with a final concentration of 2.5 × 10^5 red blood cells.mL^−1. Briefly, 100 µL of red blood cells was incubated with 100 µL of different concentrations of each IAP, prepared in PBS, for 30 minutes at 37 °C, with constant shaking at 120 rpm. PBS and Triton X-100 0.1% (v/v) were used as negative and positive controls, respectively. After incubation, the solution was centrifuged at 900 × g for five minutes followed by transferring 50 µL of the supernatant to flat-bottom polystyrene 96-well micro plates containing 50 µL of PBS. Microplate reading was performed at a BioTek Multireader, using a wavelength of 540 nm. All tests were performed in 3 biological replicates, composed of 3 biological repetitions each. The obtained data was subtracted by the negative control and relative to the positive control, defined as 100% lysis.

[2] = test system: Moniliophthora perniciosa basidiospores; assay: Inhibition of M. perniciosa basidiospore germination; assay type: cell-based; settings: 1 × 10^6 basidiospores mL^−1, one hour with peptide (256-0.5 µM), 24 °C, counted after 4 hours on agar slides, biological triplicates
Description: The antimicrobial potential of T. cacao IAPs for inhibiting M. perniciosa basidiospores was evaluated. Briefly, 1 × 10^6 basidiospores mL^−1 were incubated for one hour with different concentrations of T. cacao IAPs (256-0.5 µM), at 24 °C, in a final volume of 100 µL. Autoclaved dH20 was used as a control. After incubation, 3 droplets of 10 µL each were placed in a slide coated with agar (1.2% (w/v)). Slides were incubated for 4, 24 and 48 hours at 24 °C. Slides were visualized using a DMRXA light microscope (Leica). Approximately 150–200 basidiospores per droplet from each time point were counted and compared to the control condition, which was defined as 100% germination. All experiments were performed in biological triplicates, with 3 technical repetitions each.

[3] = Far-UV circular dichroism, helix percentage in buffer and with LUVs; assay type: physicochemical; settings: room temperature, from [θ]222 nm, * = β-sheet structure; for %Hel 2:1 DMPC/DMPG: 40 μM peptide + 2 mM 2:1 DMPC:DMPG LUVs (50 fold excess); for %Hel 2:1 DMPC/DMPG / %Hel DMPC: pH 7.4 buffer; for %Hel DMPC: 40 μM peptide + 2 mM DMPC LUVs (50 fold excess); for %Hel buffer: 40 μM peptide in 20 mM sodium phosphate, 150 mM NaCl, pH 7.4
Description: DMPC and 2:1 DMPC:DMPG (w/w) were dissolved in chloroform and methanol (3:1 v/v) at 10 mg/mL, dried using a rotary evaporator and left 3 hours under high vacuum in a freeze dryer. Phospholipids were then dissolved in 20 mM Sodium phosphate – NaOH, 150 mM NaCl, pH 7.4 and hand-shaken until the formation of a cloudy solution, which was passed 19 times through a 100 nm polycarbonate membrane at 30 °C for the formation of large unilamelar vesicles (LUVs) using a mini-extruder (Avanti Polar Lipids). Phospholipid concentration was estimated according to the ammonium ferrothiocyanate method.
Experiments were conducted on a Jasco-J815 spectropolarimeter (Jasco International Co.). Spectra were acquired at room temperature from 200 to 260 nm as an average of 4 readings using a 0.1 cm path length cell, data pitch of 0.2 nm and a response time of 0.5 s. Data Scans of buffer and 2 mM DMPC and 2:1 DMPC:DMPG LUVs solutions were acquired and subtracted from each peptide data. Peptides were scanned at a concentration of 40 μM in buffer and then 50 fold excess of DMPC and 2:1 DMPC:DMPG LUVs were added, resulting in a molar ratio of 0.02 peptide/phospholipid. The spectra were converted to mean residue ellipticity and readings at [θ]222 nm were used to estimate helix percentages.

[4] = SC50 = IAP concentration that at least 50% of red blood cells remain intact, 128 µM–0.5 µM tested, PBS, 30 minutes, 37 °C, absorbance 540 nm

| Substance | Hemolytic activity (% ± SD) at 1 µM [1] | Hemolytic activity (% ± SD) at 2 µM [1] | Hemolytic activity (% ± SD) at 4 µM [1] | Hemolytic activity (% ± SD) at 8 µM [1] | Hemolytic activity (% ± SD) at 16 µM [1] | Hemolytic activity (% ± SD) at 32 µM [1] | Hemolytic activity (% ± SD) at 64 µM [1] | Hemolytic activity of human red blood cells (%) SC50 [1, 4] | IC50 ([2]; concentration at which at least 50% of basidiospores germination was inhibited, read-out: Inhibitory concentration IC50, M. perniciosa basidiospores germination) | Inhibitory concentration IC95, M. perniciosa basidiospores germination ([2]; concentration at which at least 95% of basidiospores germination was inhibited) | %Hel 2:1 DMPC/DMPG [3] | %Hel DMPC [3] | %Hel buffer [3] | Hemolytic activity (% ± SD) at 128 µM [1] | Hemolytic activity of human red blood cells (%) SC50 [1] | Concentration that induced 50% hemolysis ([1]; red cells of human) |
| --- | --- | --- | --- | --- | --- | --- | --- | --- | --- | --- | --- | --- | --- | --- | --- | --- |
| GLWSTIKQKGKEAAIAAAKAAGQAALGAL-NH2 [DS01, Dermaseptin DS01, reference compound] | 0.00 ± 0.00% | 0.19 ± 0.02% | 0.17 ± 0.04% | 0.03 ± 0.01% | 0.48 ± 0.12% | 0.79 ± 0.30% | 3.70 ± 1.34% | >128 µM | 128 µM | 256 µM |  |  |  |  |  |  |
| GIVLKDLFSEKLRRYKIVIG [Tc09, IAP from Theobroma cacao, NB-ARC domain-containing disease resistance protein, putative] |  |  |  |  |  |  |  |  |  |  | 0.0% | 19.3% | 12.3% |  |  |  |
| LHRLVKLVAALLRGYASKVDTH [Tc08] | 0.11 ± 0.04% | 0.11 ± 0.09% | 0.27 ± 0.10% | 0.30 ± 0.05% | 2.00 ± 1.13% | 15.47 ± 1.58% | 28.81 ± 2.6 7% | >128 µM |  |  |  |  |  |  |  |  |
| LLDKLKRTLLSIEAVLI [Tc11, IAP from Theobroma cacao, LRR and NB-ARC domains-containing disease resistance protein] |  |  |  |  |  |  |  |  |  |  | 56.7% | 57.0% | 45.8% |  |  |  |
| GSLHGFMYKYLKNMVLTLF-NH2 [At01] | 0.00 ± 0.00% | 0.00 ± 0.00% | 0.00 ± 0.00% | 0.00 ± 0.00% | 0.19 ± 0.01% | 1.05 ± 0.22% | 5.04 ± 2.39% |  |  |  |  |  |  | 14.6 ± 2.14% | >128 µM |  |
| FFYNVIKIYGNMAGRISK-NH2 [Cs03] | 0.00 ± 0.00% | 0.02 ± 0.00% | 0.01 ± 0.00% | 0.00 ± 0.00% | 0.21 ± 0.05% | 0.99 ± 0.34% | 4.11 ± 1.22% |  |  |  |  |  |  | 14.51 ± 1.55% | >128 µM |  |
| IKLRNVLKYLFRIDVIKEDIL-NH2 [Tc03] | 0.03 ± 0.00% | 0.04 ± 0.03% | 0.00 ± 0.00% | 0.17 ± 0.04% | 0.09 ± 0.01% | 0.67 ± 0.30% | 2.29 ± 1.18% |  |  |  |  |  |  | 7.89 ± 1.44% | >128 µM |  |
| GLYNFIKVLGRTVFGLYKQF-NH2 [At04] | 0.00 ± 0.00% | 0.00 ± 0.00% | 0.00 ± 0.00% | 0.09 ± 0.04% | 0.40 ± 0.10% | 0.91 ± 0.20% | 4.12 ± 1.41% |  |  |  |  |  |  | 13.8 ± 2.41% | >128 µM |  |
| LIKVVNHVQYNVTLHWHGIR [Tc07, IAP from Theobroma cacao, Laccase 17] |  |  |  |  |  |  |  |  |  |  | 19.9% | 17.1% | 23.5% |  |  |  |
| RVLKDVESALRESVANWKIVIG [Tc04, IAP from Theobroma cacao, Purple acid phosphatase 3] |  |  |  |  |  |  |  |  |  |  | 36.3% | 15.8% | 14.3% |  |  |  |
| KVLSKVHTLLKAVLAL-NH2 [At02] | 0.04 ± 0.00% | 0.03 ± 0.00% | 0.02 ± 0.00% | 0.00 ± 0.00% | 0.30 ± 0.16% | 2.41 ± 0.98% | 10.28 ± 4.3% |  |  |  |  |  |  | 23.10 ± 3.41% | >128 µM |  |
| GAKLAKKQVRALGKFFSF-NH2 [At03] | 0.00 ± 0.00% | 0.00 ± 0.00% | 0.04 ± 0.01% | 0.02 ± 0.00% | 0.00 ± 0.00% | 0.03 ± 0.00% | 0.17 ± 0.08% |  |  |  |  |  |  | 0.34 ± 0.11% | >128 µM |  |
| ANRLLEAYKMLLKFLGNLR-NH2 [Gr02] | 0.01 ± 0.01% | 0.38 ± 0.09% | 1.23 ± 0.05% | 4.19 ± 0.78% | 7.01 ± 3.48% | 28.33 ± 4.77% | 46.44 ± 7.63% |  |  |  |  |  |  | 68.42 ± 5.45% | 64 µM | 64 µM |
| VALRLAKEVIKVQQGW [Tc01, IAP from Theobroma cacao, Embryo defective 1381 isoform 2] |  |  |  |  |  |  |  |  |  |  | 64.8% | 4.5% | 5.0% |  |  |  |

Reference: publication PMC5643462, “Encrypted Antimicrobial Peptides from Plant Proteins” (Scientific Reports, 2017)
